Among the data in patent publication US20220273684A1, “Systems and Methods to Identify Pancreatic Ductal Adenocarcinoma and Uses Thereof” (The Board of Trustees of the Leland Stanford Junior …, priority 2021, published 2022) are cell viability values, retold here.

Assay [1] relates to acinar cell-derived PDAC cell lines. Description: Cell viability assay (MTT) after incubation with drug, acinar cell-derived PDAC cell lines. In kind it is cell-based. The procedure:
(§1) FIGS. 4A-4E illustrate exemplary data that acinar and ductal cell-derived pancreatic cancer cells have different sensitivities to multiple therapeutic agents in accordance with various embodiments of the invention. FIG. 4A illustrates an exemplary method to identify agents to treat specific types of tumors and/or treating an individual based on tumor signature. FIG. 4B illustrates a schematic of the experimental setup. FIG. 4C illustrates cell viability after a 24 hour incubation with 25 μM of GSK-3β inhibitor, TDZD-8. FIG. 4D illustrates cell viability after a 48 hour incubation with 1 mM of glucose analog, 2-DG. FIG. 4E illustrates cell viability after a 72 hour incubation with 100 μM of AKT kinase inhibitor, Capivasertib.
Turning to FIGS. 4A-4E, various embodiments are capable of identifying agents to treat specific types of tumors and/or treating an individual based on tumor signature. Specifically, FIG. 4A illustrates a method 400 to test one or more treatments against tumor-derived cells. At 402, many embodiments obtain one or more cultures of cells. […]
Turning back to FIG. 4A, after treatment, many embodiments assess cellular growth at 408. Cellular growth can be assessed manually or automatedly. […]

The test system of assay [2] is ductal cell-derived PDAC cell lines. Description: Cell viability assay (MTT) after incubation with drug, ductal cell-derived PDAC cell lines. The assay is classed as cell-based. As to conditions: 72 hour incubation with 100 μM Capivasertib; ductal cell-derived relative to acinar cell-derived PDAC lines (FIG. 4E). The procedure:
as §1, with “Capivasertib. Turning to FIGS. 4A-4E, various embodiments are capable of identifying agents to treat specific types of tumors and/or treating an individual based on tumor signature. Specifically, FIG. 4A illustrates a method 400 to test one or more treatments against tumor-derived cells. At 402, many embodiments obtain one or more cultures of cells. In various embodiments, the derived tumor cells are obtained as an admixture of cells, while some embodiments obtain cells as a single type (e.g., healthy, acinar cell-derived, or ductal cell-derived). […] Cellular growth can be assessed manually or automatedly. […]” for “Capivasertib.”

As for `OCC1OC(O)CC(O)C1O` (stereo not drawn) [2-DG], the cell viability entry in assay [1] (48 hour incubation with 1 mM 2-DG, acinar cell-derived relative to ductal cell-derived PDAC lines (FIG. 4D)) is given as “increased viability”.
Turning to `NC1(C(=O)N[C@@H](CCO)c2ccc(Cl)cc2)CCN(c2ncnc3[nH]ccc23)CC1` [Capivasertib], the cell viability entry in assay [2] was “increased viability”.
For `Cn1sc(=O)n(Cc2ccccc2)c1=O` [TDZD-8], in assay [1] (24 hour incubation with 25 μM TDZD-8, acinar cell-derived relative to ductal cell-derived PDAC lines (FIG. 4C)), the cell viability result was “increased viability”.
